Laboratory results taken from patent publication US7098372B1, “Pharmaceutical compositions and methods of using secreted frizzled related protein” (Wyeth, priority 1999, dated 2006).

Assays:
hOB SFRP mRNA [1] = test: TaqMan quantitative RT-PCR of hOB SFRP mRNA; assay type: cell-based, human; conditions: 24 hr
Description: In a similar manner, the hOB-01-C1 cells were seeded into 100 mm dishes and treated for 24 hr with increasing concentrations of TGF-β1. Total RNA was then isolated from the cells, and hOB SFRP mRNA was measured by TaqMan quantitative RT-PCR. TGF-β1 suppressed SFRP gene expression by approximately 70% in a dose-dependent manner with an IC50 of about 4 pM.
In addition to the hOB cell lines from which SFRP was initially identified, additional in vitro human osteoblast models were examined for the presence of the gene. SaOS-2 human osteosarcoma osteoblast-like cells were obtained from the American Type-Culture Collection (ATCC) and were cultured at 37° C. in McCoy's 5A Modified medium containing 10% FBS, 1% (v/v) Penicillin-Streptomycin and 2 mM GlutaMAX-1. Likewise, explant cultures of normal human osteoblasts (hOBs) were established from cancellous bone chips as previously described (Bodine et al. 1996 J. Bone Miner. Res. 11: 806–819, which is incorporated herein by reference). The cells were then seeded into 150 mm dishes and treated as described in Examples 1 and 4, except that the cells were incubated at 37° C. instead of 39° C. PolyA+ RNA Northern blot analysis was performed using the cloned 1.1 kb hOB SRFP gene fragment as a ^32P-label). SaOS-2 cells expressed relatively low basal levels of SFRP mRNA which was not regulated by treatment with either PTH, PGE2 or TGF-β1 (FIG. 7). It was difficult to quantify expression of this gene in these cells, since the level of expression was low. In contrast, normal hOB cells expressed higher basal levels of SFRP message, and treatment of the cells with 100 nM PGE2 for 24 hr appeared to slightly up-regulate the steady-state levels of this mRNA (˜1.3-fold). […] Due to the low basal level expression in osteosarcoma cells, these cells may not be satisfactory in vitro models to study the regulation of the SFRP gene. Since the gene is expressed and regulated by PGE2 in cultures of normal human osteoblasts, the use of the hOB cell lines described in the present invention is validated for in vitro osteoblast models.

hOB SFRP mRNA [2] = test: Northern blot analysis of hOB SFRP mRNA expression; assay type: cell-based, human; conditions: for regulation of SFRP mRNA: SaOS-2 human osteosarcoma cells
Text: The hOB SFRP gene fragment was identified using RADE (rapid analysis of differential expression) technology as described by Shiue 1997 Drug Develop. Res. 41: 142–159, the whole of which is incorporated herein. Three hOB cell lines (hOB-03-C5, hOB-03-CE6 and hOB-01-C1), representing three distinct stages of differentiation (proliferative, mature and preosteocytic, respectively) were used to isolate and identify SFRP. The hOB cell lines were established and cultured as previously described (Bodine et al. 1996 J. Bone Miner. Res. 11: 806–819; Bodine et al. 1996 Endocrinology 137: 4592–4604; Bodine et al. 1997 J. Cell. Biochem. 65: 368–387). […] However, in contrast to osteosarcoma cells (Stein and Lian 1993 Endocrine Rev. 14: 424–442), the hOB cell lines were faithful to the proliferation/differentiation relationship at the nonpermissive temperature (>37° C.) when the T-antigen mutant is inactivated. The cell lines were seeded into 150 mm dishes at ˜40,000 cells/cm^2 with growth medium [D-MEM/F-12 containing 10% (v/v) heat-inactivated fetal bovine serum (FBS), 1% (v/v) Penicillin-Streptomycin and 2 mM GlutaMAX-1] and incubated overnight at 34° C. The next day, the medium was removed, the cells were rinsed with phosphate-buffered saline (PBS), 20 ml of serum-free medium was added to the dishes [phenol red-free D-MEM/F-12 (Gibco/BRL) containing 0.25% (w/v) bovine serum albumin (BSA, Pentex crystallized, Bayer), 1% (v/v) Penicillin-Streptomycin, 2 mM GlutaMAX-1, […] ascorbate-2-phosphate (Wako), and 10 nM menadione sodium bisulfite (vitamin K3)], and the dishes were incubated at 39° C. for 24 hr. The next day, the medium was removed and the cells were treated at 39° C. for an additional 24 hr with 20 ml of fresh serum-free medium containing either vehicle (Control), 8 nM human parathyroid hormone 1–34 (PTH), 100 nM prostaglandin E2 (PGE2) or 0.1 nM human transforming growth factor-β1 (TGF-β1). PTH, PGE2 and TGF-β1 are known osteogenic agents (Whitfield and Morley 1995 Trends Pharmaceut. Sci. 16:382–386; Jee and Ma 1997 Bone 21:297–304; Centrella et al. 1994 Endocrine Rev. 15:27–39). After the treatment period, the dishes were rinsed with PBS and total cellular RNA was isolated from the nontreated and treated cells using TRIzol according to the manufacturers instructions (GibcoBRL). RADE was then performed with the isolated RNA samples as above; the regulated gene fragments were identified, cloned and sequenced. These experiments identified a total of 82 differentially expressed genes. A BLAST (basic local alignment search tool) search of the public data bases was performed on the RADE-obtained gene fragments; one of the gene fragments was highly homologous to mouse SFRP-1. This gene fragment was identified during RADE using the following primer pair: 5′-[…]-3′ (HT11A)3′ end (reverse primer) and 5′-[…]-3′ (H-AP1) 5′ end (forward primer), which sequences are SEQ ID NO 11 and SEQ ID NO 12, respectively. The expression and regulation of the gene fragment having homology to mouse cDNA SFRP-1 was confirmed by Northern blot analysis.
In order to confirm the regulation of hOB SFRP gene expression by different osteogenic agents (i.e., the DNA fragment identified in Example 1, above), the hOB cell lines were treated with PTH, PGE2, and TGF-β1; RNA was then isolated for Northern hybridizations. The experiments were performed as follows. The hOB cell lines were seeded into 150 mm dishes and treated as described in Example 1, except that polyA+ RNA was isolated from total cellular RNA using Oligotex mRNA maxi kits as described by the manufacturer (Qiagen). Northern blot analysis was performed using either the excised RADE hOB SFRP gene fragment, the cloned hOB SFRP gene fragment or the cloned full-length hOB SFRP cDNA as a ^32P-labeled probe (as described in Bodine et al. 1996 J. Bone Miner. Res. 11: 806–819, which is incorporated herein). Each of these probes detected a 4.4–4.6 kb message in the hOB cells. […]

Compound | IC50 (hOB SFRP mRNA [1]; hOB-01-C1 cells, read-out: IC50 for suppression of SFRP gene expression) | suppression of SFRP gene expression (hOB SFRP mRNA [1]; hOB-01-C1 cells, increasing concentrations) | regulation of SFRP mRNA (hOB SFRP mRNA [2]; 24 hr, 37° C.) | suppression of hOB SFRP mRNA levels (hOB SFRP mRNA [2]; hOB-01-C1 cells, 100 pM, 24 hr) | up-regulation of SFRP message (hOB SFRP mRNA [1]; normal hOB cells (explant cultures), 100 nM) | time course of hOB SFRP mRNA expression (hOB SFRP mRNA [2]; hOB-03-C5 cells, 100 nM, 2 to 24 hr) | hOB SFRP mRNA expression (hOB SFRP mRNA [2]; hOB-03-C5 cells, 100 nM, 24 hr) | EC50 (hOB SFRP mRNA [2]; hOB-03-C5 cells, increasing concentrations, 24 hr, read-out: EC50 for up-regulation of hOB SFRP mRNA expression) | EC50 for up-regulation of hOB SFRP mRNA, times higher than in the hOB-03-C5 cells (hOB SFRP mRNA [2]; hOB-03-CE6 cells) | hOB SFRP mRNA expression (hOB SFRP mRNA [2]; maturation-stage hOB-03-CE6 cells) | up-regulation of steady-state SFRP mRNA levels (hOB SFRP mRNA [2]; normal hOB cells (explant cultures), 100 nM, 24 hr, 37° C.)
human transforming growth factor-β1 [TGF-β1] | ~0.004 nM | approximately 70% | not regulated | 80% |  |  |  |  |  |  | 
CCCCC[C@H](O)/C=C/[C@H]1[C@H](O)CC(=O)[C@@H]1C/C=C\CCCC(=O)O [PGE2, prostaglandin E2] |  |  | not regulated |  | 10 fold | up-regulated hOB SFRP mRNA expression in a time-dependent manner | completely up-regulated | ~8 nM | about 10 times | up-regulation | ~1.3 fold
